From ChEMBL document CHEMBL1921793, “Bacterial production of the tunicate-derived antitumor cyclic depsipeptide didemnin B” (J Nat Prod, 2011)
≈ marks a conversion by molar mass, not a printed value.

Key:
[1] = system: HT-29; assay: Cytotoxicity against human HT-29 cells after 96 hrs by microplate reader analysis; type: functional, cell-based; conditions: HT-29, 96 h
[2] = system: A549; assay: Cytotoxicity against human A549 cells after 96 hrs by microplate reader analysis; type: functional, cell-based; conditions: A549, 96 h

## CC[C@H](C)[C@@H]1NC(=O)[C@@H](NC(=O)[C@@H](CC(C)C)N(C)C(=O)[C@@H]2CCCN2C(=O)[C@H](C)OC(C)=O)[C@H](C)OC(=O)[C@H](Cc2ccc(OC)cc2)N(C)C(=O)[C@@H]2CCCN2C(=O)[C@H](CC(C)C)NC(=O)[C@@H](C)C(=O)[C@H](C(C)C)OC(=O)C[C@@H]1O [NORDIDEMNIN B]
[1]
  IC50: 10 ng/mL (≈ 8.66 nM)
[2]
  IC50: 7 ng/mL (≈ 6.06 nM)
